Laboratory results: patent US8722894B2, “1,3-disubstituted-4-phenyl-1H-pyridin-2-ones” (Janssen Pharmaceuticals, Inc., priority 2007, dated 2014)

Columns and labels:
human mGluR2 receptor = target: T1, human mGluR2 receptor (Homo sapiens, UniProt Q14416); test: [35S]GTPγS binding assay (GTPγS-PAM), membranes from cells transfected with the human mGluR2 receptor; type: biochemical; conditions: in presence of mGluR2 agonist glutamate at a predetermined EC25 concentration; CHO-cell membranes; averages of duplicate values of 11-concentration response curves; pEC50 = -logEC50; read-out: GTPgS - hR2 PAM pEC50 (converted)
T1 construct: expressed in transfected cells; host or cells: CHO cells
T1 sequence (Q14416 19-872): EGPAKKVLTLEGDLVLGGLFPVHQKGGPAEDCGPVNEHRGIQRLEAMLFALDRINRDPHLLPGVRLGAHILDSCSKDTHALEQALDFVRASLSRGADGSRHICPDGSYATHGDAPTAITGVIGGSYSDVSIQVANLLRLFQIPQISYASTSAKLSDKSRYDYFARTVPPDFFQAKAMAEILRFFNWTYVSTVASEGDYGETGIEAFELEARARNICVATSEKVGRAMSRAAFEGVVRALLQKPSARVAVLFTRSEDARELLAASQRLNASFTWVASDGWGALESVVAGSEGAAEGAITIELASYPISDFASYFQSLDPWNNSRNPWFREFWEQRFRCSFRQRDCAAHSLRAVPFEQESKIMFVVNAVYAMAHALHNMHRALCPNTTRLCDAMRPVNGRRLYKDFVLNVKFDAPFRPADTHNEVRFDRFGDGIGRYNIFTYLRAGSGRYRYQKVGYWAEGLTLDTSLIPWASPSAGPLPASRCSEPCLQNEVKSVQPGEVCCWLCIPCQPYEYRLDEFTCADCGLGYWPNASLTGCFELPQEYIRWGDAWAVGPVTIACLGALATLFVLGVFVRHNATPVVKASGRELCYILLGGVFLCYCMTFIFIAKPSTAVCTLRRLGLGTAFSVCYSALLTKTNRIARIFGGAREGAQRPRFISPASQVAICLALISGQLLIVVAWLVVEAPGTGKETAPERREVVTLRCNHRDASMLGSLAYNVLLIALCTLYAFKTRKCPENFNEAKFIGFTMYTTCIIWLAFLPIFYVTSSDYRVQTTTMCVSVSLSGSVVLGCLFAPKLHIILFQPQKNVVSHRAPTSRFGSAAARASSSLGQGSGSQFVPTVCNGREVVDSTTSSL
Description: The [^35S]GTPγS binding assay is a functional membrane-based assay used to study G-protein coupled receptor (GPCR) function whereby incorporation of a non-hydrolysable form of GTP, [^35S]GTPγS (guanosine 5′-triphosphate, labelled with […] ^35S), is measured. The G-protein α subunit catalyzes the exchange of guanosine 5′-diphosphate (GDP) by guanosine triphosphate (GTP) and on activation of the GPCR by an agonist, [^35S]GTPγS, becomes incorporated and cannot be cleaved to continue the exchange cycle (Harper (1998) Current Protocols in Pharmacology 2.6.1-10, John Wiley & Sons, Inc.). […] Here we describe the use of the [^35S]GTPγS binding assay using membranes from cells transfected with the human mGluR2 receptor and adapted from Schaffhauser et al ((2003) Molecular Pharmacology 4:798-810) for the detection of the positive allosteric modulation (PAM) properties of the compounds of this invention.
CHO-cells were cultured to pre-confluence and stimulated with 5 mM butyrate for 24 hours, prior to washing in PBS, and then collection by scraping in homogenisation buffer (50 mM Tris-HCl buffer, pH 7.4, 4° C.). Cell lysates were homogenized briefly (15 s) using an ultra-turrax homogenizer. The homogenate was centrifuged at 23 500×g for 10 minutes and the supernatant discarded. The pellet was resuspended in 5 mM Tris-HCl, pH 7.4 and centrifuged again (30 000×g, 20 min, 4° C.). The final pellet was resuspended in 50 mM HEPES, pH 7.4 and stored at −80° C. in appropriate aliquots before use. Protein concentration was determined by the Bradford method (Bio-Rad, USA) with bovine serum albumin as standard.
Measurement of mGluR2 positive allosteric modulatory activity of test compounds in membranes containing human mGluR2 was performed using frozen membranes that were thawed and briefly homogenised prior to pre-incubation in 96-well microplates (15 μg/assay well, 30 minutes, 30° C.) in assay buffer (50 mM HEPES pH 7.4, 100 mM NaCl, 3 mM MgCl2, 50 μM GDP, 10 μg/ml saponin,) with increasing concentrations of positive allosteric modulator (from 0.3 nM to 50 μM) and either a minimal pre-determined concentration of glutamate (PAM assay), or no added glutamate. For the PAM assay, membranes were pre-incubated with glutamate at EC25 concentration, i.e. a concentration that gives 25% of the maximal response glutamate, and is in accordance to published data (Pin et al. (1999) Eur. J. Pharmacol. 375:277-294). […] Filters were then air-dried, and 40 μl of liquid scintillation cocktail (Microscint-O) was added to each well, and membrane-bound [^35S]GTPγS was measured in a 96-well scintillation plate reader (Top-Count, Perkin-Elmer, USA). Non-specific [^35S]GTPγS binding is determined in the presence of cold 10 μM GTP. […]

Structure (SMILES) | melting point [°C] | EC50 (human mGluR2 receptor) [nM]
O=c1c(Cl)c(-c2ccc(OC3CCOCC3)c(Cl)c2)ccn1CCC1CC1 [Compound 4] | 154 | 275
O=c1c(Cl)c(-c2ccc(NC3CCOCC3)c(C(F)(F)F)c2)ccn1CC1CC1 [Compound 5] | 173 | 813
O=c1c(Cl)c(-c2ccc(NC3CCOCC3)c(Cl)c2)ccn1CC1CC1 [Compound 6] | 231 | 575
CCCCn1ccc(-c2ccc(NC3CCC(C)(O)CC3)c(Cl)c2)c(Cl)c1=O (centres unmarked) [Compound 7] | 227.4 | 39.8
